Results from patent publication US20090312310A1 (priority 2006, published 2009).

target: T1, Mdm2/p53 binding (Homo sapiens, UniProt Q00987, L33E); assay: Mdm2/p53 binding assay (HTRF, His-p53 / GST-Mdm2); details: His-p53 (aa 1-132) and GST-Mdm2 (aa 25-108, L33E), 6.25 nM each; 25° C., 1 hour
T1 construct: having Mdm2 amino acids at positions 25 to 108
Method: Next, a test compound was diluted with protein buffer solution containing 10% DMSO, and this test compound dilution was added in an amount of 4 μL/well to the plate.
These dilutions were added in an amount of 8 μL/well (total reaction solution volume: 20 μl/well). Then, the plate was left at 25° C. for 1 hour.
C (correction factor)=(A−BI)/D
The R value calculated from the well supplemented with His-p53, GST-Mdm2, the test compound, and each antibody was defined as R (sample). The R value calculated from the well supplemented with His-p53, GST-Mdm2, and each antibody but without the test compound was defined as R (control). The R value calculated from the well supplemented with GST-Mdm2, the test compound, and each antibody but without His-p53 was defined as R (background). T/C was calculated from the formula shown below. An IC50 value for Mdm2/p53 binding was calculated by sigmoid fitting using Prism (GraphPad Software).
T/C=(R (sample)−R (background))/(R (control)−R (background))

T1 sequence (Q00987 25-108 L33E, species assumed): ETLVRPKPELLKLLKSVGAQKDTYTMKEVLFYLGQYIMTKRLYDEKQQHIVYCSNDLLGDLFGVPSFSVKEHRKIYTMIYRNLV

| SMILES | IC50 [nM] |
| --- | --- |
| CC(C)C1=C(CN2CCNC(=O)C2)SC2=NC(C)(c3ccc(Cl)cc3)C(c3ccc(Cl)cc3)N21 (racemic) [Example 18, 4-{[(5R*,6S*)-5,6-Bis(4-chlorophenyl)-3-isopropyl-6-methyl-5,6-dihydroimidazo[2,1-b][1,3]thiazol-2-yl]methyl}piperazin-2-one] | 87 |
| CCCCC[C@]1(C)N=C2SC(C(=O)N3CCC[C@H]3C(=O)N(C)C)=C(C(C)C)N2[C@@H]1c1ccc(Cl)cc1 (relative stereo) [Example 99 (Cis-Isomer), 1-{[(5R*,6S*)-5-(4-chlorophenyl)-3-isopropyl-6-methyl-6-pentyl-5,6-dihydroimidazo[2,1-b][1,3]thiazol-2-yl]carbonyl}-N,N-dimethyl-L-prolinamide] | 194 |
| CC(C)C1=C(C(=O)N(C)C)SC2=N[C@@](C)(c3ccc(Cl)cc3)[C@@H](c3ccc(Cl)cc3)N21 [Example 39, (5R,6S)-5,6-Bis(4-chlorophenyl)-3-isopropyl-N,N,6-trimethyl-5,6-dihydroimidazo[2,1-b][1,3]thiazole-2-carboxamide] | 51 |
| CC(C)C1=C(C(=O)N2CCC[C@H]2C(=O)N2CCC[C@H]2C(=O)O)SC2=N[C@@](C)(c3ccc(Cl)cc3)[C@@H](c3ccc(Cl)cc3)N21 [Example 68, 1-{[(5R,6S)-5,6-Bis(4-chlorophenyl)-3-isopropyl-6-methyl-5,6-dihydroimidazo[2,1-b][1,3]thiazol-2-yl]carbonyl}-L-prolyl-L-proline] | 46 |
| CC(=O)N(C)C[C@H](C)N(C)C(=O)C1=C(C(C)C)N2C(=N[C@@](C)(c3ccc(Cl)cc3)[C@H]2c2ccc(Cl)cc2)S1 [Example 74, (5R,6S)—N-{(1S)-2-[Acetyl(methyl)amino]-1-methylethyl}-5,6-bis(4-chlorophenyl)-3-isopropyl-N,6-dimethyl-5,6-dihydroimidazo[2,1-b][1,3]thiazole-2-carboxamide] | 23 |
| CC(=O)N1CCN(C(=O)CN(CC(C)C)C(=O)C2=C(C(C)C)N3C(=N[C@@](C)(c4ccc(Cl)cc4)[C@H]3c3ccc(Cl)cc3)S2)CC1 [Example 88, (5R,6S)—N-[2-(4-Acetylpiperazin-1-yl)-2-oxoethyl]-5,6-bis(4-chlorophenyl)-N-isobutyl-3-isopropyl-6-methyl-5,6-dihydroimidazo[2,1-b][1,3]thiazole-2-carboxamide] | 29 |
| CC(C)C1=C(C(=O)N2CCC[C@H]2c2n[nH]c(=O)o2)SC2=N[C@@](C)(c3ccc(Cl)cc3)[C@@H](c3ccc(Cl)cc3)N21 [Example 89, 5-((2S)-1-{[(5R,6S)-5,6-Bis(4-chlorophenyl)-3-isopropyl-6-methyl-5,6-dihydroimidazo[2,1-b][1,3]thiazol-2-yl]carbonyl}pyrrolidin-2-yl)-1,3,4-oxadiazol-2(3H)-one] | 143 |
| CC(C)C1=C(C(=O)N2CC[C@H]2C(=O)N(C)C)SC2=N[C@@](C)(c3ccc(Cl)cc3)[C@@H](c3ccc(Cl)cc3)N21 [Example 93, (2S)-1-{[(5R,6S)-5,6-Bis(4-chlorophenyl)-3-isopropyl-6-methyl-5,6-dihydroimidazo[2,1-b][1,3]thiazol-2-yl]carbonyl}-N,N-dimethylazetidine-2-carboxamide] | 135 |
| CNc1cc([C@]2(C)N=C3SC(C(=O)N4CCC[C@H]4C(=O)N4CCN(C)CC4)=C(C(C)C)N3[C@@H]2c2ccc(Cl)cc2)ccc1Cl [Example 102] | 80 |
| CC[C@@H]1CC[C@@H](C(=O)N2C[C@@H](C)N[C@@H](C)C2)N1C(=O)C1=C(C(C)C)N2C(=N[C@@](C)(c3ccc(Cl)cc3)[C@H]2c2ccc(Cl)cc2)S1 [Example 105, (5R,6S)-5,6-Bis(4-chlorophenyl)-2-[((2S,5R)-2-{[(3R,5S)-3,5-dimethylpiperazin-1-yl]carbonyl}-5-ethylpyrrolidin-1-yl)carbonyl]-3-isopropyl-6-methyl-5,6-dihydroimidazo[2,1-b][1,3]thiazole] | 18 |
| CC[C@@H]1CC[C@@H](C(=O)N2CCN(C(C)=O)[C@H](C)C2)N1C(=O)C1=C(C(C)C)N2C(=N[C@@](C)(c3ccc(Cl)cc3)[C@H]2c2ccc(Br)cc2)S1 [Example 155, (5R,6S)-2-{[(2S,5R)-2-{[(3R)-4-Acetyl-3-methylpiperazin-1-yl]carbonyl}-5-ethylpyrrolidin-1-yl]carbonyl}-5-(4-bromophenyl)-6-(4-chlorophenyl)-3-isopropyl-6-methyl-5,6-dihydroimidazo[2,1-b][1,3]thiazole] | 30 |
| CC(C)C1=C(C(=O)N(C)[C@H]2C[C@@H](O)C2)SC2=N[C@@](C)(c3ccc(Cl)cc3)[C@@H](c3ccc(Cl)cc3)N21 [Example 164, (5R,6S)-5,6-Bis(4-chlorophenyl)-N-(cis-3-hydroxycyclobutyl)-3-isopropyl-N,6-dimethyl-5,6-dihydroimidazo[2,1-b][1,3]thiazole-2-carboxamide] | 84 |
| CC(C)C1=C(C(=O)N2[C@H](C)CC[C@H]2C(=O)N2CCN(C)[C@H](C)C2)SC2=N[C@@](C)(c3ccc(Cl)cc3)[C@@H](c3ccc(Cl)c(F)c3)N21 [Example 167, (5R,6S)-5-(4-Chloro-3-fluorophenyl)-6-(4-chlorophenyl)-2-{[(2S,5R)-2-{[(3R)-3,4-dimethylpiperazin-1-yl]carbonyl}-5-methylpyrrolidin-1-yl]carbonyl}-3-isopropyl-6-methyl-5,6-dihydroimidazo[2,1-b][1,3]thiazole] | 10 |
| CC(C)C1=C(C(=O)N2[C@H](C)CC[C@H]2C(=O)N2CCN(C)[C@H](C)C2)SC2=N[C@@](C)(c3ccc(Cl)cc3)[C@@H](c3ccc(C(F)(F)F)cc3)N21 [Example 180, (5R,6S)-6-(4-Chlorophenyl)-2-{[(2S,5R)-2-{[(3R)-3,4-dimethylpiperazin-1-yl]carbonyl}-5-methylpyrrolidin-1-yl]carbonyl}-3-isopropyl-6-methyl-5-[4-(trifluoromethyl)phenyl]-5,6-dihydroimidazo[2,1-b][1,3]thiazole] | 13 |
| CC(C)C1=C(C(=O)N2[C@H](C)CC[C@H]2C(=O)N2CCN(CCO)[C@H](C)C2)SC2=N[C@@](C)(c3ccc(Cl)cc3)[C@@H](c3ccc(Cl)cc3)N21 [Example 204, 2-{(2R)-4-[(5R)-1-{[(5R,6S)-5,6-Bis(4-chlorophehyl)-3-isopropyl-6-methyl-5,6-dihydroimidazo[2,1-b][1,3]thiazol-2-yl]carbonyl}-5-methyl-L-prolyl]-2-methylpiperazin-1-yl}ethanol] | 19 |
| CC(C)C1=C(C(=O)N2CCC[C@H]2COC2CCN(C)CC2)SC2=N[C@@](C)(c3ccc(Cl)cc3)[C@@H](c3ccc(Cl)cc3)N21 [Example 211, (5R,6S)-5,6-Bis(4-chlorophenyl)-3-isopropyl-6-methyl-2-{[(2S)-2-{[(1-methylpiperidin-4-yl)oxy]methyl}pyrrolidin-1-yl]carbonyl}-5,6-dihydroimidazo[2,1-b][1,3]thiazole] | 12 |
| CC(C)C1=C(C(=O)N(C(C)C)[C@H]2C[C@H](N(C)C)C2)SC2=N[C@@](C)(c3ccc(Cl)cc3)[C@@H](c3ccc(Cl)cc3)N21 [Example 219, (5R,6S)-5,6-Bis(4-chlorophenyl)-N-[trans-3-(dimethylamino)cyclobutyl]-N,3-diisopropyl-6-methyl-5,6-dihydroimidazo[2,1-b][1,3]thiazole-2-carboxamide] | 4 |
| CC(C)C1=C(C(=O)N(C)C)SC2=N[C@@](C)(c3ccc(Cl)nc3)[C@@H](c3ccc(Cl)cc3)N21 [Example 220, (5R,6S)-5-(4-Chlorophenyl)-6-(6-chloropyridin-3-yl)-3-isopropyl-N,N,6-trimethyl-5,6-dihydroimidazo[2,1-b][1,3]thiazole-2-carboxamide] | 76 |
| CC(C)C1=C(C(=O)N2[C@H](C)CC[C@H]2C(=O)N2C[C@@H](N)[C@H](F)C2)SC2=N[C@@](C)(c3ccc(Cl)cc3)[C@@H](c3ccc(Cl)cc3)N21 [Example 240, (3R,4R)-1-[(5R)-1-{[(5R,6S)-5,6-Bis(4-chlorophenyl)-3-isopropyl-6-methyl-5,6-dihydroimidazo[2,1-b][1,3]thiazol-2-yl]carbonyl}-5-methyl-L-prolyl]-4-fluoropyrrolidin-3-amine] | 13 |
| CC(C)C1=C(C(=O)N2[C@H](C)CC[C@H]2C(=O)N2CCN(CCO)[C@H](C)C2)SC2=N[C@@](C)(c3ccc(Cl)nc3)[C@@H](c3ccc(Cl)c(F)c3)N21 [Example 260, 2-{(2R)-4-[(5R)-1-{[(5R,6S)-5-(4-chloro-3-fluorophenyl)-6-(6-chloropyridin-3-yl)-3-isopropyl-6-methyl-5,6-dihydroimidazo[2,1-b][1,3]thiazol-2-yl]carbonyl}-5-methyl-L-prolyl]-2-methylpiperazin-1-yl}ethanol] | 15 |
